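A five-concentration, 48-hour dose response in 96-well plates underlies each endpoint, interpolated linearly between surrounding concentrations. GI50 marks 50% less growth.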 Calls of active or inactive are those of the source. Rule as the data show it: active = GI50 up to about 1.1 µM and inactive = higher.
What was measured:
Test in all cases: NCI anticancer screen, dose series, 48 h
786-0 = test system: 786-0
A498 = test system: A498
A549 = test system: A549
ACHN = test system: ACHN
BT-549 = test system: BT-549
CAKI-1 = test system: CAKI-1
CCRF-CEM = test system: CCRF-CEM
COLO 205 = test system: COLO 205
DU-145 = test system: DU-145
EKVX = test system: EKVX
HCC 2998 = test system: HCC 2998
HCT-116 = test system: HCT-116
HCT-15 = test system: HCT-15
HL-60 = test system: HL-60
HOP-62 = test system: HOP-62
HOP-92 = test system: HOP-92
HT-29 = test system: HT-29
Hs-578T = test system: Hs-578T
IGROV-1 = test system: IGROV-1
K562 = test system: K562
KM12 = test system: KM12
LOX IMVI = test system: LOX IMVI
M14 = test system: M14
MCF7 = test system: MCF7
MDA-MB-231 = test system: MDA-MB-231
MDA-MB-435 = test system: MDA-MB-435
MDA-N = test system: MDA-N
MOLT-4 = test system: MOLT-4
Malme-3M = test system: Malme-3M
NCI-H226 = test system: NCI-H226
NCI-H23 = test system: NCI-H23
NCI-H460 = test system: NCI-H460
NCI-H522 = test system: NCI-H522
NCI/ADR-RES = test system: NCI/ADR-RES
OVCAR-3 = test system: OVCAR-3
OVCAR-4 = test system: OVCAR-4
OVCAR-5 = test system: OVCAR-5
OVCAR-8 = test system: OVCAR-8
PC-3 = test system: PC-3
RPMI-8226 = test system: RPMI-8226
RXF 393 = test system: RXF 393
SF-268 = test system: SF-268
SF-295 = test system: SF-295
SF-539 = test system: SF-539
SK-MEL-28 = test system: SK-MEL-28
SK-MEL-2 = test system: SK-MEL-2
SK-MEL-5 = test system: SK-MEL-5
SK-OV-3 = test system: SK-OV-3
SN12C = test system: SN12C
SNB-19 = test system: SNB-19
SNB-75 = test system: SNB-75
SR = test system: SR
SW-620 = test system: SW-620
T47D = test system: T47D
TK-10 = test system: TK-10
U-251 = test system: U-251
UACC-257 = test system: UACC-257
UACC-62 = test system: UACC-62
UO-31 = test system: UO-31
DLD-1 = test system: DLD-1
LXFL 529 = test system: LXFL 529
M19-MEL = test system: M19-MEL

`CN(C)/C=C/c1c2c(nc3ccccc13)C(=O)c1cccnc1C2=O` was tested, and the GI50 (786-0) was 0.226 µM (active), the GI50 (A498) was 0.865 µM (active) and the GI50 (A549) was 0.912 µM (active). For the same compound, the GI50 (ACHN) was 0.217 µM (active), the GI50 (BT-549) was 0.402 µM (active) and the GI50 (CAKI-1) was 1.46 µM (inactive). The GI50 (CCRF-CEM) was 1.84 µM (inactive), the GI50 (COLO 205) was 2.07 µM (inactive) and the GI50 (DU-145) was 0.416 µM (active). The GI50 (EKVX) was 2.25 µM (inactive), the GI50 (HCC 2998) was 1.28 µM (inactive) and the GI50 (HCT-116) was 0.197 µM (active). The GI50 (HCT-15) was 0.0908 µM, the GI50 (HL-60) was 0.299 µM (active) and the GI50 (HOP-62) was 0.0579 µM (active). The GI50 (HOP-92) was 2.04 µM (inactive), the GI50 (HT-29) was 2.2 µM (inactive) and the GI50 (Hs-578T) was 1.58 µM (inactive). The GI50 (IGROV-1) was 1.42 µM (inactive), the GI50 (K562) was 0.446 µM (active) and the GI50 (KM12) was 0.35 µM (active). For the same compound, the GI50 (LOX IMVI) was < 0.01 µM (active), the GI50 (M14) was 0.218 µM (active) and the GI50 (MCF7) was 0.262 µM (active). For the same compound, the GI50 (MDA-MB-231) was 0.867 µM (active), the GI50 (MDA-MB-435) was 0.548 µM (active) and the GI50 (MDA-N) was 0.54 µM (active). The GI50 (MOLT-4) was 2.01 µM (inactive), the GI50 (Malme-3M) was 0.697 µM (active) and the GI50 (NCI-H226) was 0.292 µM (active). The GI50 (NCI-H23) was 0.592 µM (active), the GI50 (NCI-H460) was 0.109 µM (active) and the GI50 (NCI-H522) was 0.315 µM (active). For the same compound, the GI50 (NCI/ADR-RES) was 0.321 µM (active), the GI50 (OVCAR-3) was 0.0568 µM (active) and the GI50 (OVCAR-4) was 0.351 µM (active). The GI50 (OVCAR-5) was 1.45 µM (inactive), the GI50 (OVCAR-8) was 0.407 µM (active) and the GI50 (PC-3) was 0.542 µM (active). For the same compound, the GI50 (RPMI-8226) was 1.89 µM (inactive), the GI50 (RXF 393) was 0.705 µM (active) and the GI50 (SF-268) was 0.41 µM (active). For the same compound, the GI50 (SF-295) was 0.57 µM (active), the GI50 (SF-539) was 0.3 µM (active) and the GI50 (SK-MEL-28) was 0.552 µM (active). The GI50 (SK-MEL-2) was 1.62 µM (inactive), the GI50 (SK-MEL-5) was 0.151 µM (active) and the GI50 (SK-OV-3) was 0.792 µM (active). The GI50 (SN12C) was 0.532 µM (active), the GI50 (SNB-19) was 0.562 µM (active) and the GI50 (SNB-75) was 0.432 µM (active). For the same compound, the GI50 (SR) was 0.221 µM (active), the GI50 (SW-620) was 0.244 µM (active) and the GI50 (T47D) was 3.97 µM (inactive). For the same compound, the GI50 (TK-10) was 1.4 µM (inactive), the GI50 (U-251) was 0.353 µM (active) and the GI50 (UACC-257) was 0.668 µM (active). For the same compound, the GI50 (UACC-62) was 0.541 µM (active) and the GI50 (UO-31) was 0.557 µM (active).

In the case of `CS[C@]12C(=O)C[C@@]3(C)[C@@H](CC[C@]3(O)C(=O)CO)[C@@H]1CCC1=CC(=O)CC[C@@]12C`, the GI50 (786-0) is reported as > 100 µM (inactive), the GI50 (A498) is reported as > 100 µM (inactive) and the GI50 (A549) is reported as > 100 µM (inactive). The GI50 (ACHN) was > 100 µM (inactive), the GI50 (BT-549) was 68.2 µM (inactive) and the GI50 (CAKI-1) was > 100 µM (inactive). The GI50 (CCRF-CEM) was 42.8 µM (inactive), the GI50 (COLO 205) was > 100 µM (inactive) and the GI50 (DU-145) was > 100 µM (inactive). The GI50 (EKVX) was > 100 µM (inactive), the GI50 (HCC 2998) was 26.9 µM (inactive) and the GI50 (HCT-116) was > 100 µM (inactive). The GI50 (HCT-15) was 60.7 µM, the GI50 (HL-60) was 35.3 µM (inactive) and the GI50 (HOP-62) was > 100 µM (inactive). The GI50 (HOP-92) was > 100 µM (inactive), the GI50 (HT-29) was 88.5 µM (inactive) and the GI50 (Hs-578T) was > 100 µM (inactive). For the same compound, the GI50 (IGROV-1) was > 100 µM (inactive), the GI50 (K562) was 37.1 µM (inactive) and the GI50 (KM12) was > 100 µM (inactive). For the same compound, the GI50 (LOX IMVI) was > 100 µM (inactive), the GI50 (M14) was 46 µM (inactive) and the GI50 (MCF7) was > 100 µM (inactive). For the same compound, the GI50 (MDA-MB-231) was > 100 µM (inactive), the GI50 (MDA-MB-435) was 30.1 µM (inactive) and the GI50 (MDA-N) was 26.6 µM (inactive). For the same compound, the GI50 (MOLT-4) was 49.8 µM (inactive), the GI50 (Malme-3M) was > 100 µM (inactive) and the GI50 (NCI-H226) was > 100 µM (inactive). The GI50 (NCI-H23) was > 100 µM (inactive), the GI50 (NCI-H460) was > 100 µM (inactive) and the GI50 (NCI-H522) was 47.9 µM (inactive). For the same compound, the GI50 (NCI/ADR-RES) was > 100 µM (inactive), the GI50 (OVCAR-3) was > 100 µM (inactive) and the GI50 (OVCAR-4) was > 100 µM (inactive). The GI50 (OVCAR-5) was > 100 µM (inactive), the GI50 (OVCAR-8) was > 100 µM (inactive) and the GI50 (PC-3) was 55 µM (inactive). For the same compound, the GI50 (RPMI-8226) was 30.1 µM (inactive), the GI50 (RXF 393) was > 100 µM (inactive) and the GI50 (SF-268) was > 100 µM (inactive). The GI50 (SF-295) was > 100 µM (inactive), the GI50 (SF-539) was > 100 µM (inactive) and the GI50 (SK-MEL-28) was > 100 µM (inactive). The GI50 (SK-MEL-2) was > 100 µM (inactive), the GI50 (SK-MEL-5) was > 100 µM (inactive) and the GI50 (SK-OV-3) was > 100 µM (inactive). The GI50 (SN12C) was > 100 µM (inactive), the GI50 (SNB-19) was > 100 µM (inactive) and the GI50 (SNB-75) was > 100 µM (inactive). For the same compound, the GI50 (SR) was 35 µM (inactive), the GI50 (SW-620) was 68.5 µM (inactive) and the GI50 (T47D) was > 100 µM (inactive). For the same compound, the GI50 (TK-10) was > 100 µM (inactive), the GI50 (U-251) was > 100 µM (inactive) and the GI50 (UACC-257) was > 100 µM (inactive). The GI50 (UACC-62) was > 100 µM (inactive) and the GI50 (UO-31) was 95.5 µM (inactive).

For `COc1ccc(/C=N/n2cnc3c(sc(=S)n3-c3ccccc3)c2=O)cc1`, the GI50 (A549) was 45.5 µM (inactive), the GI50 (ACHN) was 27.6 µM (inactive) and the GI50 (CCRF-CEM) was 18.3 µM (inactive). For the same compound, the GI50 (COLO 205) was 50.8 µM (inactive), the GI50 (DLD-1) was 26.8 µM (inactive) and the GI50 (HCC 2998) was 23.9 µM (inactive). The GI50 (HCT-116) was > 100 µM (inactive), the GI50 (HL-60) was 12.5 µM (inactive) and the GI50 (HOP-62) was 12.2 µM (inactive). The GI50 (HOP-92) was 4.43 µM (inactive), the GI50 (HT-29) was 24.5 µM (inactive) and the GI50 (IGROV-1) was 37 µM (inactive). For the same compound, the GI50 (K562) was 15.8 µM (inactive), the GI50 (KM12) was > 100 µM (inactive) and the GI50 (LXFL 529) was 16.9 µM (inactive). The GI50 (M19-MEL) was 33.2 µM (inactive), the GI50 (MOLT-4) was 20.4 µM (inactive) and the GI50 (NCI-H226) was 18.3 µM (inactive). The GI50 (NCI-H23) was 23.6 µM (inactive), the GI50 (NCI-H460) was 35.8 µM (inactive) and the GI50 (NCI-H522) was 13.5 µM (inactive). The GI50 (OVCAR-3) was 14.9 µM (inactive), the GI50 (OVCAR-5) was 1.68 µM (inactive) and the GI50 (OVCAR-8) was 26.5 µM (inactive). The GI50 (RPMI-8226) was 16.4 µM (inactive), the GI50 (SF-268) was 6.28 µM (inactive) and the GI50 (SF-295) was 10 µM (inactive). The GI50 (SF-539) was 12.8 µM (inactive), the GI50 (SK-MEL-28) was 13.2 µM (inactive) and the GI50 (SK-MEL-5) was 24.7 µM (inactive). For the same compound, the GI50 (SK-OV-3) was 13.2 µM (inactive), the GI50 (SNB-19) was 17.7 µM (inactive) and the GI50 (SNB-75) was 2.47 µM (inactive). The GI50 (SR) was 29.2 µM (inactive), the GI50 (SW-620) was 99.3 µM (inactive) and the GI50 (TK-10) was 25.3 µM (inactive). For the same compound, the GI50 (U-251) was 23.2 µM (inactive), the GI50 (UACC-257) was 23.6 µM (inactive) and the GI50 (UACC-62) was 16.7 µM (inactive). For the same compound, the GI50 (UO-31) was 40.4 µM (inactive).
